The source of these data is patent US20170283458A1, “COLLAGEN-BINDING SYNTHETIC PEPTIDOGLYCANS FOR WOUND HEALING” (Symic Biomedical, Inc., priority 2009, published 2017).

Ends that are not written are not given here.

In series [1] the test system is Human coronary artery smooth muscle cells (HCA SMC). The experiment in a line: Gel compaction by smooth muscle cells in collagen gels. The format is cell-based. As to conditions: Days 3 and 5. As for the experimental part: Human coronary artery smooth muscle cells (HCA SMC) (Cascade Biologics) were cultured in growth medium (Medium 231 supplemented with smooth muscle growth factor). Cells from passage 3 were used for all experiments. Differentiation medium (Medium 231 supplemented with 1% FBS and 1× pen/strep) was used for all experiments unless otherwise noted.
Collagen gels were prepared with each additive as described with the exception that the 1×PBS example addition was omitted to accommodate the addition of cells in media. After incubating on ice for 30 min, HCA SMCs in differentiation medium were added to the gel solutions to a final concentration of 1×10^6 cells/mL. Gels were formed in quadruplicate in 48-well non-tissue culture treated plates (Costar) for 6 hrs before adding 500 μL/well differentiation medium. Gels were freed from the well edges after 24 hrs. Medium was changed every 2-3 days and images for compaction were taken at the same time points using a Gel Doc System (Bio-Rad). The cross-sectional area of circular gels correlating to degree of compaction was determined using ImageJ software (NIH). Gels containing no cells were used as a negative control and cells in collagen gels absent additive were used as a positive control. […] By day 10 all gels had compacted to approximately 10% of the original gel area, and differences between additives were small.

The next series relates to Human dermal fibroblasts. The experiment in a line: TGF-β1 production by human dermal fibroblasts (ELISA). Type of series: cell-based. As to conditions: 1.4 μM treatment, 48 hours. As for the experimental part:
Human dermal fibroblasts (Cascade Biologics) were seeded onto 96-well tissue culture polystyrene plates at a seeding density of 1.83×10^3 cells/well. Cells adhered overnight and cell medium was aspirated. 100 μL/well of cell medium containing a final concentration of 1.4 μM treatment delivered from a concentrated solution of treatment in 1×PBS was added to the cells. After 48 hours, cell medium was removed and frozen at −80 C until further testing. TGF-β1 was measured by ELISA using a kit and protocol from R&D Systems.
Background: In an ELISA, binding on a coated surface is turned into a signal by an enzyme label.

The next series addresses T1, collagen (Bos taurus, UniProt P02453+P02465).
T1 construct: purchased Inamed, Freemont, Calif; Nutragen
The experiment in a line: Fibrillogenesis turbidity assay (absorbance at 313 nm). Type of series: biochemical. As to conditions: 4 mg/mL collagen, 10:1 collagen:treatment unless otherwise indicated. The procedure: (§1) Gels were made with Nutragen collagen (Inamed, Freemont, Calif.) at a final concentration of 4 mg/mL collagen. Nutragen stock is 6.4 mg/mL in 10 mM HCl. Gel preparation was performed on ice, and fresh samples were made before each test. The collagen solution was adjusted to physiologic pH and salt concentration, by adding appropriate volumes of 10×PBS (phosphate buffered saline), 1×PBS, and 1M NaOH. For most experiments, samples of DS, decorin, DS-SILY, or DS-Dc13 were added at a 10:1 collagen:treatment molar ratio by a final 1×PBS addition (equal volumes across treatments) in which the test samples were dissolved at appropriate concentrations. In this way, samples are constantly kept at pH 7.4 and physiologic salt concentration. Collagen-alone samples received a 1×PBS addition with no sample dissolved. Fibrillogenesis will be induced by incubating neutralized collagen solutions at 37° C. overnight in a humidified chamber to avoid dehydration. Gel solutions with collagen:treatment molar ratios of other than 10:1 were prepared similarly.
Collagen fibrillogenesis was monitored by measuring turbidity related absorbance at 313 nm providing information on rate of fibrillogenesis and fibril diameter. Gel solutions were prepared as described in EXAMPLE 16 (4 mg/mL collagen, 10:1 collagen:treatment, unless otherwise indicated) and 50 uL/well were added at 4° C. to a 384-well plate. The plate was kept at 4° C. for 4 hours before initiating fibril formation. A SpectraMax M5 at 37° C. was used to measure absorbance at 313 nm at 30 s intervals for 6 hours.
A fibrillogenesis assay as described for DS-SILY, EXAMPLE 19, performed with the conjugate DS-Dc13.

The target of another series is T2, collagen I (Bos taurus, UniProt P02453+P02465).
T2 construct: purchased Inamed, Freemont, Calif; Nutragen
The experiment in a line: Cryo-SEM measurements on collagen I, fibril diameter. The format is biochemical. Particulars: 4 mg/mL collagen, 10:1 collagen:treatment, cryo-SEM 20,000×. The procedure:
as §1
Gels for cryo-SEM were formed, as in EXAMPLE 16, directly on the SEM stage and incubated at 37° C. overnight. The stages were then secured in a cryo-holder and plunged into liquid nitrogen slush. Samples were then transferred to a Gatan Alto 2500 pre-chamber cooled to −170° C. under vacuum. A free-break surface was created with a cooled scalpel, and each sample evaporated under sublimation conditions for 20 min. The sample was coated by platinum sputter coating for 120 s. Samples were transferred to the cryo-stage at −130° C. and regions with similar orientation were imaged for comparison across treatments. Analysis of the images was performed to determine the fibril diameter distribution, presented in histograms adjacent the corresponding image in FIG. 14, and average fibril diameter, FIG. 17 an 18;. Fibril diameter was calculated using ImageJ software (NIH) measuring individual fibrils by hand (drawing a line across fibrils and measuring its length after properly setting the scale). At least 45 independent fibril measurement were recorded for average fibril diameter calculations.

The target in the next series is T3, collagen gels (Bos taurus, UniProt P02453+P02465).
T3 construct: purchased Inamed, Freemont, Calif; Nutragen
The series can be described thus: Cryo-SEM measurement of fibril density. Type of series: biochemical. As to conditions: 10:1 molar ratio, cryo-SEM 10,000×. The procedure:
Collagen gels were formed in the presence of each additive at a 10:1 molar ratio, as described in EXAMPLE 16, directly on the SEM stage, processed, and imaged as described. Images at 10,000× were analyzed for fibril density calculations. Images were converted to 8-bit black and white, and threshold values for each image were determined using ImageJ software (NIH). The threshold was defined as the value where all visible fibrils are white, and all void space is black. The ratio of white to black area was calculated using MatLab software. All measurements were taken in triplicate and thresholds were determined by an observer blinded to the treatment.

The next series concerns HCA SMCs. The series can be described thus: Measurement of elastin (Fastin assay) in cell-seeded collagen gels. The format is cell-based, human. As to conditions: gels cultured for 10 days. The procedure: Collagen gels seeded with HCA SMCs were prepared as described in EXAMPLE 30. Differentiation medium was changed every three days and gels were cultured for 10 days. Collagen gels containing no cells were used as a control. Gels were rinsed in 1×PBS overnight to remove serum protein, and gels were tested for elastin content using the Fastin elastin assay per manufacturers protocol (Biocolor, County […].). Briefly, gels were solubilized in 0.25 M oxalic acid by incubating at 100° C. for 1 hr. Elastin was precipitated and samples were then centrifuged at 11,000×g for 10 min. The solubilized collagen supernatant was removed and the elastin pellet was stained by Fastin Dye Reagent for 90 min at room temperature. Samples were centrifuged at 11,000×g for 10 min and unbound dye in the supernatant was removed. Dye from the elastin pellets was released by the Fastin Dye Dissociation Reagent, and 100 μL samples were transferred to a 96-well plate (Costar). Absorbance was measured at 513 nm, and elastin content was calculated from an α-elastin standard curve.

T1 sequence (P02453 162-1217 limits assumed): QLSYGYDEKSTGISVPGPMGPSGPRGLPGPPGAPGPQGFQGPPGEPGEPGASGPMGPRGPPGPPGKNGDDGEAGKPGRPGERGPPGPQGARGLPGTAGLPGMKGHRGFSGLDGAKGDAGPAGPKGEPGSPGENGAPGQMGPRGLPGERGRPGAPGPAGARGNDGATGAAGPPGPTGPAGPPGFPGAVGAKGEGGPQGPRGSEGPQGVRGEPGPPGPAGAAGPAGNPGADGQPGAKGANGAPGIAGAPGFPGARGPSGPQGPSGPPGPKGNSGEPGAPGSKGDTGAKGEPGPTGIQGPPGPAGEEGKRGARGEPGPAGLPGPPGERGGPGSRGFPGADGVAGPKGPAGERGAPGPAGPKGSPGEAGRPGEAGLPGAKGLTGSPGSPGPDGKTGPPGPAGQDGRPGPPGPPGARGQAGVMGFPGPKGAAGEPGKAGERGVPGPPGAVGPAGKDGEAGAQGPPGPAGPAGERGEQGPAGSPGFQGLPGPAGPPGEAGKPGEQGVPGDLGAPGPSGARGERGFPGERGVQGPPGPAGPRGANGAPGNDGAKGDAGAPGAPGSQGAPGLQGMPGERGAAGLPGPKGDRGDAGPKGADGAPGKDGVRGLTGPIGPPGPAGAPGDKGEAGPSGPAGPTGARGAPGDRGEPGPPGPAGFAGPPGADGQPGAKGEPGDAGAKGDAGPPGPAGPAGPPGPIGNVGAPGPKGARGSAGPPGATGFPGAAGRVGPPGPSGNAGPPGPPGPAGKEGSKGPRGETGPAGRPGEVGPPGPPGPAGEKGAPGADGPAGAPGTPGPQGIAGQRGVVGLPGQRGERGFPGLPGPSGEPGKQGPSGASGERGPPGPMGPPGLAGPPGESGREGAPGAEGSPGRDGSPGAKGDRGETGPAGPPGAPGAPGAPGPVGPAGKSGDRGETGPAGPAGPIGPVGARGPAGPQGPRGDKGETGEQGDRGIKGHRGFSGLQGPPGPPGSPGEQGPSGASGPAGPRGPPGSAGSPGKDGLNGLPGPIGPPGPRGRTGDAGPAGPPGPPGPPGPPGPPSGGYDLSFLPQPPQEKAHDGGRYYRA
T1 sequence (P02465 80-1117 limits assumed): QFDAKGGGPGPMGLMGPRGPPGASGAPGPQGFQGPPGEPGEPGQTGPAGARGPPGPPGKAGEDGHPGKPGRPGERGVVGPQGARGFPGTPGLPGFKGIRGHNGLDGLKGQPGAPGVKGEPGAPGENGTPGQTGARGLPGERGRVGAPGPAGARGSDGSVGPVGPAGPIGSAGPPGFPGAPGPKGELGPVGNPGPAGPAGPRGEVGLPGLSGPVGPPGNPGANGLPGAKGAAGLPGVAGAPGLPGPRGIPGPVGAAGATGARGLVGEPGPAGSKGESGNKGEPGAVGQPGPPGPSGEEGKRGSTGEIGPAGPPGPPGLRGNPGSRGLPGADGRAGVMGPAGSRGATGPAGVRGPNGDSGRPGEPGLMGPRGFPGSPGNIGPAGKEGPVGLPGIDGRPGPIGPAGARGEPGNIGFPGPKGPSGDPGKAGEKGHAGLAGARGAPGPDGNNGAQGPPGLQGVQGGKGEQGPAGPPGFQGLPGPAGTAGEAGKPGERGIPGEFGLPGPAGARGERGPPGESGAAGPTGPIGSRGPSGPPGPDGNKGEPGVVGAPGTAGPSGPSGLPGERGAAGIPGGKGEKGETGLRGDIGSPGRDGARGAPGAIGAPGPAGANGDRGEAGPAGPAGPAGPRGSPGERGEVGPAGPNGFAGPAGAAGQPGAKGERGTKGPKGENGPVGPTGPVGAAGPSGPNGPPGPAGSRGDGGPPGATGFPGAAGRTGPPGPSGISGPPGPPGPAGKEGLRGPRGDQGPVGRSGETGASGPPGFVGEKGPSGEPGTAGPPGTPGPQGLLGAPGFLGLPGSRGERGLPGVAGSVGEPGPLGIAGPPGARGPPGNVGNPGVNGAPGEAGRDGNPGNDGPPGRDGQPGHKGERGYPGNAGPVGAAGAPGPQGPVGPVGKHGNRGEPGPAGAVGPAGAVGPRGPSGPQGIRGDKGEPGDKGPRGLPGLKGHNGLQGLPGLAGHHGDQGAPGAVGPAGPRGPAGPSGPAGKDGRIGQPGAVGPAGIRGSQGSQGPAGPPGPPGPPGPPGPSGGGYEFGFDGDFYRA
T2 sequence (P02453 162-1217 limits assumed): as the sequence (P02453 162-1217 limits assumed) above
T2 sequence (P02465 80-1117 limits assumed): as the sequence (P02465 80-1117 limits assumed) above
T3 sequence (P02453 162-1217 limits assumed): as the sequence (P02453 162-1217 limits assumed) above
T3 sequence (P02465 80-1117 limits assumed): as the sequence (P02465 80-1117 limits assumed) above

Take “DS-SILY: collagen-binding peptidoglycan in which a single SILY peptide was conjugated to dermatan sulfate via PDPH (RRANAALKAGELYKSILYGC; also: single peptide conjugated to dermatan sulfate via PDPH, site not given here)”: the “gel compaction at early time points” value in series [1] is on record as “significantly compacted more than gels made of collagen alone or collagen with dermatan sulfate”. Besides, in the series on Human dermal fibroblasts, the “TGF-β1 in cell medium” value is “significantly decreased TGF-β1”. Also, the rate of fibrillogenesis entry with collagen is listed as “decrease the rate of fibrillogenesis”. The average fibril diameter result with collagen I is listed as “significant decrease in average fibril diameter”. Besides, the “fibril density (ratio of fibril containing area to void space)” value with collagen gels is given as “significantly greater fibril density”. Also, the elastin production result in the series on HCA SMCs is “significantly increased elastin production over all samples”.
